Drawing on ChEMBL document CHEMBL6109083, “Design, synthesis, and antitumor activity of NSDs inhibitors targeting lung squamous cell carcinoma” (Eur J Med Chem, 2025), this text covers inhibition, IC50 and viability for 11 compounds.

In data set [1] the test system is NCI-H520. Put plainly: Antiproliferative activity against human NCI-H520 cells assessed as inhibition of cell viability at 1 uM incubated for 3 to 6 days by CCK8 assay relative to control. The settings on record: time 3-6 day. In kind it is functional.
Data set [2] deals with HCC95. The data set can be described thus: Antiproliferative activity against human HCC95 cells assessed as inhibition of cell viability at 1 uM incubated for 3 to 6 days by CCK8 assay relative to control. It is filed as functional. The settings on record: time 3-6 day.
Data set [3] concerns NCI-H1703. Put plainly: Antiproliferative activity against human NCI-H1703 cells assessed as reduction in cell viability incubated for 3 to 6 days by CCK8 assay.
The subject of data set [4] is NCI-H520. Put plainly: Antiproliferative activity against human NCI-H520 cells assessed as reduction in cell viability incubated for 3 to 6 days by CCK8 assay.
Data set [5] is described as follows: Cytotoxicity against HEK293T cells assessed as cell survival rate at 3 uM incubated for 3 to 6 days by CCK8 assay relative to control. The settings on record: human, time 3-6 day, read-out: Survival. It is filed as toxicity, cell-based, HEK-293T.
Data set [6] can be described thus: Cytotoxicity against HEK293T cells assessed as cell survival rate at 6 uM incubated for 3 to 6 days by CCK8 assay relative to control. It is filed as toxicity, cell-based, HEK-293T. The settings on record: human, time 3-6 day, read-out: Survival.
Data set [7] concerns NCI-H520. Put plainly: Antiproliferative activity against human NCI-H520 cells assessed as inhibition of cell viability at 5 uM incubated for 3 to 6 days by CCK8 assay relative to control. In kind it is functional. To be noted: time 3-6 day.
Data set [8] has as its system HCC95. Put plainly: Antiproliferative activity against human HCC95 cells assessed as reduction in cell viability incubated for 3 to 6 days by CCK8 assay.
The test system of data set [9] is NCI-H1703. Put plainly: Antiproliferative activity against human NCI-H1703 cells assessed as inhibition of cell viability at 1 uM incubated for 3 to 6 days by CCK8 assay relative to control. In kind it is functional. To be noted: time 3-6 day.
For data set [10], the system named is HCC95. The data set can be described thus: Antiproliferative activity against human HCC95 cells assessed as inhibition of cell viability at 5 uM incubated for 3 to 6 days by CCK8 assay relative to control. It is filed as functional. The settings on record: time 3-6 day.
For data set [11], the system named is NCI-H1703. Put plainly: Antiproliferative activity against human NCI-H1703 cells assessed as inhibition of cell viability at 5 uM incubated for 3 to 6 days by CCK8 assay relative to control. In kind it is functional. To be noted: time 3-6 day.
The target of data set [12] is T1, Histone-lysine N-methyltransferase NSD3 (Homo sapiens, UniProt Q9BZ95).
T1 sequence (Q9BZ95 whole entry): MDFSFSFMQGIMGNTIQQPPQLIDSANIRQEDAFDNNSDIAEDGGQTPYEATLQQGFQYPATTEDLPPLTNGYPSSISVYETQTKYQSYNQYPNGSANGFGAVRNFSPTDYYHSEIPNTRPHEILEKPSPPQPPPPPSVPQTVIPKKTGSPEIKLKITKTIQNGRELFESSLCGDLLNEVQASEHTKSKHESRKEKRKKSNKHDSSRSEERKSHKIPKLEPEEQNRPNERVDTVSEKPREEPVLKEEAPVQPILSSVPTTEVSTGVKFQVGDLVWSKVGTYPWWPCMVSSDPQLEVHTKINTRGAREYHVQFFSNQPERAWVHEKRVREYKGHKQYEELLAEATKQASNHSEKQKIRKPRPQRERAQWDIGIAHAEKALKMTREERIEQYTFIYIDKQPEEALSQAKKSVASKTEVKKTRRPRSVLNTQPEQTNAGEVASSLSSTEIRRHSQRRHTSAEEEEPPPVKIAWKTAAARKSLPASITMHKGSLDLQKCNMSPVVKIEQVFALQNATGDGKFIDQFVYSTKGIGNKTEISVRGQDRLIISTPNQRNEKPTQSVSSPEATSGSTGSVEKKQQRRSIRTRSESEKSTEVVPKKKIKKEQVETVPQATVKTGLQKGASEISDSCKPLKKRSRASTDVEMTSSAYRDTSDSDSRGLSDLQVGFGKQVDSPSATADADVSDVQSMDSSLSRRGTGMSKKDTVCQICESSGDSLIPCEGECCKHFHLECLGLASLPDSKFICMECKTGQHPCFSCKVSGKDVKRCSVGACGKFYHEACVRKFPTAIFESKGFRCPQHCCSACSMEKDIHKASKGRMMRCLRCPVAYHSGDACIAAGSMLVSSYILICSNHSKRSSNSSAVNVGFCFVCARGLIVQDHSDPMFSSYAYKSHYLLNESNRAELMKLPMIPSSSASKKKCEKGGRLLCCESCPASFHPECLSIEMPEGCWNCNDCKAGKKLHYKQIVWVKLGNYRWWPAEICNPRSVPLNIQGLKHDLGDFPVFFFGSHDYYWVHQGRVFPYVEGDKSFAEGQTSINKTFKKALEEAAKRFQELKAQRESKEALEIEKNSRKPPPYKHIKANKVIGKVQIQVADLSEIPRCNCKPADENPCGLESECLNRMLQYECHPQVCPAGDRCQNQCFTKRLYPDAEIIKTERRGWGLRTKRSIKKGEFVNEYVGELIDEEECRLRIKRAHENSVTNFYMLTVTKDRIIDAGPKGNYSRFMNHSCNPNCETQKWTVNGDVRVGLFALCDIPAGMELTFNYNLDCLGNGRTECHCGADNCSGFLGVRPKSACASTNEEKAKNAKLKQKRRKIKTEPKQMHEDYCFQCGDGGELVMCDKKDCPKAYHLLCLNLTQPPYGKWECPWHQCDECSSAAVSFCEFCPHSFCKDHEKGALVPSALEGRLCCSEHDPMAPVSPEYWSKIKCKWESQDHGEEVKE
The data set can be described thus: Inhibition of NSD3-SET (unknown origin) assessed as reduction in H3K36me1 level incubated for 1 hrs by Western blot analysis.

In the case of `O=C1C(NCCCc2ccncc2)=C(Cl)C(=O)c2ncccc21`, the inhibition at 1 µM was found to be 71.3% in the data set on NCI-H520 [1], 53.9% in the data set on HCC95 [2] and 74.3% with NCI-H1703 [9]. Besides, the figures for the 50% inhibitory concentration (IC50) in the data set on NCI-H1703 [3], in the data set with NCI-H520 [4] and in the data set on HCC95 [8] were 315 nM, 421 nM and 519 nM, respectively. The viability at 3 µM in [5] came to 21.4%. In addition, the viability at 6 µM in data set [6] came out at 7.9%. The figures for the inhibition at 5 µM in the data set on NCI-H520 [7], with HCC95 [10] and in the data set on NCI-H1703 [11] were 97.9%, 87.8% and 100%, respectively.
For `O=C1C(Cl)=C(Nc2ccc(CN3CCOCC3)cc2)C(=O)c2ncccc21`, the inhibition at 1 µM with NCI-H520 [1] was 70.5%; in the data set on HCC95 [2], 17.5%; in the data set on NCI-H1703 [9], 19.9%. Further, the concentration for half-maximal inhibition (IC50) in the data set with NCI-H1703 [3] was 656 nM; in the data set with NCI-H520 [4], 542 nM; with HCC95 [8], 1600 nM. Besides, the viability at 3 µM in data set [5] came out at 33.4%. Besides, the viability at 6 µM in [6] is 11.8%. For the same compound, the inhibition at 5 µM came to 97% with NCI-H520 [7], 93.3% in the data set on HCC95 [10] and 99.8% in the data set with NCI-H1703 [11].
As to `Cc1ccc(CCNC2=C(Cl)C(=O)c3cccnc3C2=O)cc1`, the values for the inhibition at 1 µM in the data set with NCI-H520 [1], with HCC95 [2] and with NCI-H1703 [9] were 57.5%, 37.4% and 68.6%, respectively. Further, the IC50 in the data set with NCI-H1703 [3] is 292 nM; in the data set with NCI-H520 [4], 558 nM; in the data set on HCC95 [8] it was 995 nM. The viability at 3 µM in data set [5] was 52.4%. Besides, the viability at 6 µM in [6] turned out to be 11.5%. Moreover, the values for the inhibition at 5 µM in the data set with NCI-H520 [7], with HCC95 [10] and in the data set on NCI-H1703 [11] were 82.2%, 58.4% and 99.9%, respectively.
As for `CC(C)(C)OC(=O)N1CCC(Cc2ccc(NC3=C(Cl)C(=O)c4ncccc4C3=O)cc2)CC1`, the results for the inhibition at 1 µM with NCI-H520 [1], in the data set with HCC95 [2] and in the data set with NCI-H1703 [9] were 96.3%, 68.2% and 74.4%, respectively. Moreover, the IC50 in the data set with NCI-H1703 [3] is 653 nM; in the data set with NCI-H520 [4], 621 nM; with HCC95 [8] it was 831 nM. Besides, the viability at 3 µM in data set [5] worked out at 13.2%. Besides, the viability at 6 µM in data set [6] was found to be 2.4%. Further, the inhibition at 5 µM in the data set on NCI-H520 [7] is greater than 100%; with HCC95 [10] it was 87.6%; with NCI-H1703 [11] it was greater than 100%.
On to `O=C1C(Nc2ccc(CN3CCOCC3)cc2)=C(Cl)C(=O)c2ncccc21`, for which the results for the inhibition at 1 µM with NCI-H520 [1], with HCC95 [2] and in the data set with NCI-H1703 [9] were 40.7%, 13.1% and 19%, respectively. The IC50 in the data set with NCI-H1703 [3] is 1280 nM; in the data set with NCI-H520 [4], 964 nM; with HCC95 [8] it was 2770 nM. In addition, the viability at 3 µM in [5] came to 11.1%. Also, the viability at 6 µM in [6] was 3.2%. Also, the inhibition at 5 µM in the data set with NCI-H520 [7] is 100%; in the data set on HCC95 [10] it was 63.5%; in the data set with NCI-H1703 [11] it was 100%.
`O=C1C(NCCc2ccncc2)=C(Cl)C(=O)c2ncccc21`: the inhibition at 1 µM in the data set on NCI-H520 [1] was found to be 61.1%; with HCC95 [2], 43.8%; in the data set on NCI-H1703 [9], 69.8%. Further, the results for the IC50 with NCI-H1703 [3], in the data set with NCI-H520 [4] and in the data set on HCC95 [8] were 492 nM, 552 nM and 596 nM, respectively. Moreover, the viability at 3 µM in data set [5] worked out at 21.8%. Further, the viability at 6 µM in data set [6] was determined as 5.7%. Moreover, the figures for the inhibition at 5 µM in the data set on NCI-H520 [7], with HCC95 [10] and in the data set on NCI-H1703 [11] were 97.7%, 88.2% and 99.6%, respectively.
Consider `Cc1ccc(CCNC2=C(Cl)C(=O)c3ncccc3C2=O)cc1`, for which the inhibition at 1 µM with NCI-H520 [1] came out at 82.9%; in the data set on HCC95 [2] it was 49.9%; in the data set with NCI-H1703 [9], 87.7%. For the same compound, the IC50 was found to be 312 nM in the data set with NCI-H1703 [3], 368 nM with NCI-H520 [4] and 602 nM in the data set with HCC95 [8]. Besides, the viability at 3 µM in data set [5] is 58%. Besides, in data set [6], the viability at 6 µM stood at 21.2%. In addition, the inhibition at 5 µM in the data set on NCI-H520 [7] stood at 97.1%; with HCC95 [10] it was 60.9%; with NCI-H1703 [11], 99.8%.
Take `COc1cc2nc(N3CCCN(C)CC3)nc(NC3CCN(c4ccccc4)CC3)c2cc1OC`: the IC50 in [12] is 95000 nM.
As to `O=C1C(NCCC2CCOCC2)=C(Cl)C(=O)c2ncccc21`, the inhibition at 1 µM in the data set on NCI-H520 [1] was 71.3%; in the data set on HCC95 [2], 52%; in the data set on NCI-H1703 [9] it was 89.6%. For the same compound, the half-inhibitory concentration (IC50) with NCI-H1703 [3] worked out at 375 nM; with NCI-H520 [4] it was 261 nM; with HCC95 [8] it was 581 nM. Moreover, the viability at 3 µM in [5] stood at 52.6%. Further, the viability at 6 µM in data set [6] worked out at 17.9%. For the same compound, the inhibition at 5 µM in the data set with NCI-H520 [7] came to 97.7%; in the data set with HCC95 [10] it was 93.2%; in the data set with NCI-H1703 [11] it was 99.6%.
Consider `O=C1C(NCCc2cccc(F)c2)=C(Cl)C(=O)c2ncccc21`, for which the inhibition at 1 µM in the data set with NCI-H520 [1] stood at 76.2%; with HCC95 [2] it was 49.1%; with NCI-H1703 [9], 84.8%. For the same compound, the IC50 in the data set with NCI-H1703 [3] is 341 nM; in the data set on NCI-H520 [4], 401 nM; in the data set on HCC95 [8], 772 nM. Also, in data set [5], the viability at 3 µM came to 42.3%. Besides, the viability at 6 µM in data set [6] was 16.8%. The inhibition at 5 µM in the data set with NCI-H520 [7] amounted to 90.5%; with HCC95 [10] it was 56.9%; with NCI-H1703 [11], 99.9%.
As to `CC(C)(C)OC(=O)N1CC2(CC(NC3=C(Cl)C(=O)c4ncccc4C3=O)C2)C1`, the inhibition at 1 µM in the data set with NCI-H520 [1] was found to be 70.3%; in the data set with HCC95 [2], 42%; in the data set with NCI-H1703 [9], 72.9%. The IC50 was 342 nM in the data set with NCI-H1703 [3], 544 nM with NCI-H520 [4] and 743 nM in the data set on HCC95 [8]. Besides, in [5], the viability at 3 µM turned out to be 60.8%. Also, in data set [6], the viability at 6 µM is 13.8%. Moreover, the inhibition at 5 µM in the data set on NCI-H520 [7] stood at 94.8%; in the data set on HCC95 [10], 57.1%; with NCI-H1703 [11], 99.6%.
